Square brackets hold non-standard residues; d marks the D form. Ends that are not written are not given here.
Legend:
cells = experiment: Standard cell attachment assay; type: cell-based; set-up: key: + = positive cell attachment; - = no cell attachment; details: for CELL ATTACHMENT ASSAY RESULTS, BDDE: peptide coupled to HA by epoxide (BDDE) method; for CELL ATTACHMENT ASSAY RESULTS, SODIUM PERIODATE: peptide coupled to HA by sodium periodate method; for CELL ATTACHMENT ASSAY RESULTS, TRESYL CHLORIDE: peptide coupled to HA by tresyl chloride method
Protocol: The conjugates prepared by the above described methods, as well as conjugates containing other RGD-peptide sequences, were tested for cell attachment using the following procedures.
New subcultures are made the day before the assay and allowed to grow to 75-80% confluency. When a 100×20 mm dish was 80-90% confluent the cells were detached by adding 4 ml of trypsin/EDTA. When the cells become rounded they are suspended by adding 6 ml of complete media to the 4 ml of trypsin/EDTA (10 ml total). Forty to fifty percent of the cell suspensions were transferred to a new 100×20 mm dish and cultured as usual. One 100×20 mm dish is sufficient to perform 6 cell attachments.
Samples to be tested are placed in 0.5 ml blocking solution (HBSS, 3% BSA, 25 mM Hepes pH 7.0) until needed. Each 100×20 mm dish was trypsinized using 4 ml of trypsin/EDTA for approximately 10 minutes or until cells were easily detached. Cells should not be detached too soon or they will remain aggregated during the cell attachment assay. It is desirable to obtain a good single cell suspension. If clumps of cells are observed let them settle out before using and adjust for the loss of cells in the assay.
The cells were detached from the plate using 6 ml of serum free media (SFM) supplemented with ITS+ (Insulin Transferrin Selenium (Collaborative Research, Inc., Bedford, Mass.), SFM+ITS+=SFM+) for a total volume of 10 ml (4 ml of trypsin/EDTA+6 ml of SFM+). The cells were centrifuged one time to pellet the cells and then they were resuspended in 5 ml of soybean trypsin inhibitor (SBTI) diluted in SFM+. The cells were incubated in SBTI/SFM+ for 10 minutes in a 37° C. water bath. While trypsin was being inactivated, the blocking buyer was removed and the samples suspended in 1 ml of SFM+.
Cells were centrifuged 1 time to remove SBTI. Resuspended cells in 6 ml of SFM+ created a good single cell suspension. If necessary, the resuspended cells can sit on the bench for 5 minutes to let aggregates settle to the bottom before applying to the matrices. Approximately 1 ml of cell suspension per matrix (1-2 mg) was used. The matrix/cells were placed on a rocker in the incubator and cell attachment allowed to go for one to one and half hours. Thereafter, samples were transferred to a 12 well dish and washed 2 times with PBS using an orbital shaker. Neutral red solution (diluted 1:100) was added to PBS and incubated with the cells for 20 minutes on an orbital shaker. Two mls of stain/fix (PBS, 8% formaldehyde, crystal violet 0.0008%) was added and staining allowed to proceed for 2 hours at room temperature on the orbital shaker. Formaldehyde solution was removed and distilled water added. Cell attachment was assessed by microscopy.

[1] = system: full thickness wounds in guinea pigs; experiment: Full thickness wounds in guinea pigs; type: in vivo, guinea pig; details: Alcian staining; for residence time in the wound bed: Epoxide (BDDE) method; for residence time: Sodium periodate method; for residence time in the dermal wound: Tresyl chloride method, BDDE cross-linked HA created at pH 6
Protocol: Following the procedures for the full thickness wound model in guinea pigs described in Cheng et al., Arch. Dermatol. 124:221-226 (1988), which is incorporated herein by reference, various peptide-HA conjugates prepared by the above-described methods were analyzed.
The residence times were determined by Alcian staining and were as follows: […]

| Substance | CELL ATTACHMENT ASSAY RESULTS, BDDE (cells) | CELL ATTACHMENT ASSAY RESULTS, SODIUM PERIODATE (cells) | CELL ATTACHMENT ASSAY RESULTS, TRESYL CHLORIDE (cells) | residence time in the wound bed [1] [days] | residence time [1] | residence time in the dermal wound [1] [days] |
| --- | --- | --- | --- | --- | --- | --- |
| G R R R R R G G R G D I P TNH2 (GRRRRRGGRGDIPT-NH2; also: hyaluronate conjugate) [SEQ ID No. 3, RGD peptide, tested conjugated to hyaluronate (HA)] | + | + | + |  |  |  |
| G R R R G G R G D I P TNH2 (GRRRGGRGDIPT-NH2; also: hyaluronate conjugate) [SEQ ID No. 9, RGD peptide, tested conjugated to hyaluronate (HA)] | + | - | + |  |  |  |
| G R R G R R G R G D I P TNH2 (GRRGRRGRGDIPT-NH2; also: hyaluronate conjugate) [SEQ ID No. 18, RGD peptide, tested conjugated to hyaluronate (HA)] | - | + |  |  |  |  |
| Ac R R G R G D I P KNH2 (Ac-RRGRGDIPK-NH2; also: hyaluronate conjugate) [SEQ ID No. 14, RGD peptide, tested conjugated to hyaluronate (HA)] |  | - | + |  |  |  |
| Ac G dR dR dR dR dR G G G dR G D S P A S S K (Ac-G[dR][dR][dR][dR][dR]GGG[dR]GDSPASSK; also: hyaluronate conjugate) [SEQ ID No. 5, RGD peptide, tested conjugated to hyaluronate (HA)] | + | + |  | 7 to 10 | 7 to 10 days | 10 to 14 |
| G R R R G G G R G D I P TNH2 (GRRRGGGRGDIPT-NH2; also: hyaluronate conjugate) [SEQ ID No. 8, RGD peptide, tested conjugated to hyaluronate (HA)] | + | - | + |  |  |  |
| G R R R R G G G R G D I P TNH2 (GRRRRGGGRGDIPT-NH2; also: hyaluronate conjugate) [SEQ ID No. 4, RGD peptide, tested conjugated to hyaluronate (HA)] | + | + | + |  |  |  |
| G dR dR dR dR dR G G G dR G D S P A S S K (G[dR][dR][dR][dR][dR]GGG[dR]GDSPASSK; also: hyaluronate conjugate) [SEQ ID No. 1, RGD peptide, tested conjugated to hyaluronate (HA)] | + | + | + | 7 to 10 | at least 30 days | 10 to 14 |
| G R R R R R G G G R G D I PNH2 (GRRRRRGGGRGDIP-NH2; also: hyaluronate conjugate) [SEQ ID No. 12, RGD peptide, tested conjugated to hyaluronate (HA)] |  | + | + |  | 7 to 10 days |  |
| G R R R G G R G D I PNH2 (GRRRGGRGDIP-NH2; also: hyaluronate conjugate) [SEQ ID No. 7, RGD peptide, tested conjugated to hyaluronate (HA)] | + | - | + |  |  |  |
| G R R G R R G R G D TNH2 (GRRGRRGRGDT-NH2; also: hyaluronate conjugate) [SEQ ID No. 19, RGD peptide, tested conjugated to hyaluronate (HA)] |  |  |  |  | 7 to 10 days |  |
| G R R R R R G R G D I P TNH2 (GRRRRRGRGDIPT-NH2; also: hyaluronate conjugate) [SEQ ID No. 2, RGD peptide, tested conjugated to hyaluronate (HA)] | + | + | + |  |  |  |
| R R R R G R G D I P TNH2 (RRRRGRGDIPT-NH2; also: hyaluronate conjugate) [SEQ ID No. 10, RGD peptide, tested conjugated to hyaluronate (HA)] | + | + |  |  |  |  |
| R R R G R G D I P TNH2 (RRRGRGDIPT-NH2; also: hyaluronate conjugate) [SEQ ID No. 11, RGD peptide, tested conjugated to hyaluronate (HA)] | + |  |  |  |  |  |
| Ac R R R G G R G D I P KNH2 (Ac-RRRGGRGDIPK-NH2; also: hyaluronate conjugate) [SEQ ID No. 6, RGD peptide, tested conjugated to hyaluronate (HA)] | + | - | + |  |  |  |
| Ac G R R R R R G G G R G D I P KNH2 (Ac-GRRRRRGGGRGDIPK-NH2; also: hyaluronate conjugate) [SEQ ID No. 13, RGD peptide, tested conjugated to hyaluronate (HA)] |  | + | + |  |  |  |
